A short description of data set [1]: Dynamic solubility in water and FaSSIF at 37° C. Type of data set: physicochemical. The following applies: for solubility compared to Compound A free base: both FaSSIF and water; for solubility at 1 h / solubility at 2 h / solubility at 4 h / solubility at 24 h: thermodynamic from solid, read-out: S: Solubility.
A short description of data set [2]: Solid-state stability, 14 days, HPLC. It counts as physicochemical. On the procedure: Compound A salts and Compound A were tested for their solid-state stability under the conditions of 25° C./60% RH and 40° C./75% RH.
A short description of data set [3]: Hygroscopicity by dynamic moisture adsorption (DVS). It counts as physicochemical. The conditions noted are these: for Hygroscopicity: 25° C./80% RH. On the procedure: Dynamic moisture adsorption (DVS) was used to evaluate the hygroscopicity of compound A and salt forms under the condition of 25° C. and 80% RH.
Data set [4] is described as follows: Pharmacokinetic study of Compound A in male cynomolgus monkeys. Type of data set: in vivo. How it is done: Two groups of male cynomolgus monkeys (n=3 per group) were given Compound A by a single intravenous injection (i.v.) of 5 mg/kg, or intragastric administration (i.g.) of 50 mg/kg. Blood samples were collected at different time points. The exposure of Compound A in plasma samples were measured by LC-MS/MS method, and PK parameters (Table 8) were calculated using Phoenix WinNonlin 8.0 software.

The subject of data set [5] is COLO 205 colorectal tumor xenograft. The experiment in a line: COLO 205 colorectal tumor xenograft. It counts as in vivo, mice. The following applies: 15 mg/kg intraperitoneally. On the procedure:
A separate study of Compound A succinate was conducted in COLO 205 colorectal tumor xenograft. The tumor-bearing mice (n=8) were treated orally with vehicle (ultra-pure water), or Compound A succinate (50 or 100 mg/kg) once daily for 21 days. As a positive control chemotherapy 5-FU (15 mg/kg) was given intraperitoneally. […] 5-FU was also effective with a T/C=47.2% (Table 7).

Data set [6] has as its system A2780 ovarian cancer cells. The experiment in a line: Subcutaneous A2780 ovarian cancer xenograft. It counts as in vivo, female BALB/c nude mice. The conditions noted are these: 75 mg/kg orally once a day. How it is done: Compound A succinate was also assessed for in vivo anti-tumor activity in subcutaneous xenografts. Briefly, female BALB/c nude mice were inoculated with A2780 ovarian cancer cells; when the mean tumour volume reached 150-200 mm^3, animals were randomized to groups. The animals (n=8 per group) were treated orally with vehicle (ultra-pure water), Compound A succinate (62.5, 125 or 250 mg/kg), or Palbociclib (75 mg/kg) once a day for 14 consecutive days. Mice were observed daily for signs of toxicity and weight loss, and tumour volume measured every other day. […] Palbociclib was efficacious at 75 mg/kg, resulting in T/C of 42.8% (Table 6).

[7] abbreviates: cynomolgus monkey, plasma, iv, i.v. 5 mg/kg.
[8] abbreviates: cynomolgus monkey, plasma, po, i.g. 50 mg/kg.

≈ marks a conversion by molar mass, not a printed value. Where “and” joins values, the source holds several entries; their conditions need not be identical. Equal values may be shown once. Read-outs that look alike come from different tables or passages of the source.

For the molecule `CCN1CCN(Cc2ccc(Nc3ncc(F)c(-c4sc(NC5CCCC5)nc4C)n3)nc2)CC1.O=P(O)(O)O` [Compound A phosphate], the “S: Solubility” value was 1700 µg/mL in data set [1] (FaSSIF, 1 hour); 670 µg/mL in data set [1] (FaSSIF, 2 hours); 470 µg/mL in data set [1] (FaSSIF, 4 hours); 330 µg/mL in data set [1] (FaSSIF, 24 hours); 450 µg/mL in data set [1] (H2O, 1 hour); 410 µg/mL in data set [1] (H2O, 2 hours). In addition, the “S: Solubility” value in data set [1] (H2O, 4 hours) is 440 µg/mL; in data set [1] (H2O, 24 hours), 360 µg/mL. Further, the Purity in data set [2] (25° C./60% RH) is given as 98.3 area %; in data set [2] (40° C./75% RH) it was 98.2 area %. Moreover, the Relative purity in data set [2] (25° C./60% RH) was 100.0 % of initial; in data set [2] (40° C./75% RH), 99.9 % of initial. For the same molecule, the “Moisture absorbed at 25° C./80% RH” value in data set [3] is listed as 3.7%. In addition, in data set [3], the Hygroscopicity entry was “Hygroscopic”.

As for `CCN1CCN(Cc2ccc(Nc3ncc(F)c(-c4sc(NC5CCCC5)nc4C)n3)nc2)CC1.Cl` [Compound A hydrochloride], the “S: Solubility” value amounted to 2000 µg/mL in data set [1] (FaSSIF, 1 hour); 2000 µg/mL in data set [1] (FaSSIF, 2 hours); 2200 µg/mL in data set [1] (FaSSIF, 4 hours); 2100 µg/mL in data set [1] (FaSSIF, 24 hours); 6800 µg/mL in data set [1] (H2O, 1 hour); 7100 µg/mL in data set [1] (H2O, 2 hours). Further, the “S: Solubility” value in data set [1] (H2O, 4 hours) was determined as 7200 µg/mL; in data set [1] (H2O, 24 hours), 6800 µg/mL. Also, the “solubility compared to Compound A free base” value in data set [1] was “significantly increased”. Besides, the Purity in data set [2] (25° C./60% RH) was determined as 97.6 area %; in data set [2] (40° C./75% RH), 97.7 area %. The Relative purity in data set [2] (25° C./60% RH) is 99.9 % of initial; in data set [2] (40° C./75% RH), 100.0 % of initial. Besides, the “Moisture absorbed at 25° C./80% RH” value in data set [3] is 3.4%. Besides, the Hygroscopicity result in data set [3] is reported as “Hygroscopic”.

As for `CCN1CCN(Cc2ccc(Nc3ncc(F)c(-c4sc(NC5CCCC5)nc4C)n3)nc2)CC1` [Compound A, N-Cyclopentyl-5-(2-((5-((4-ethylpiperazin-1-yl)methyl)pyridin-2-yl)amino)-5-fluoropyrimidin-4-yl)-4-methylthiazol-2-amine], in data set [1] (FaSSIF, 1 hour), the solubility at 1 h was found to be 270 µg/mL (≈ 544 µM). The solubility at 2 h in data set [1] (FaSSIF, 2 hours) was found to be 280 µg/mL (≈ 564 µM). The solubility at 4 h in data set [1] (FaSSIF, 4 hours) came out at 240 µg/mL (≈ 483 µM). Also, the solubility at 24 h in data set [1] (FaSSIF, 24 hours) turned out to be 200 µg/mL (≈ 403 µM). In addition, in data set [1] (water, H2O, 1 hour), the solubility at 1 h is 220 µg/mL (≈ 443 µM). Further, the solubility at 2 h in data set [1] (water, H2O, 2 hours) came out at 240 µg/mL (≈ 483 µM). In addition, in data set [1] (water, H2O, 4 hours), the solubility at 4 h was 240 µg/mL (≈ 483 µM). In addition, the solubility at 24 h in data set [1] (water, H2O, 24 hours) was found to be 220 µg/mL (≈ 443 µM). Besides, in data set [2] (25° C./60% RH), the Purity is listed as 97.6 area % and the Relative purity is on record as 100.0 % of initial. In addition, in data set [2] (40° C./75% RH), the Purity amounted to 97.6 area % and the Relative purity was 100.1 % of initial. Besides, in data set [3], the “Moisture absorbed at 25° C./80% RH” value is 1.4% and the Hygroscopicity entry is recorded as “Slightly hygroscopic”. In data set [4] (setting [7]), the AUC(0-inf) was 4560 ng·h/mL, the AUC(0-t) came to 4190 ng·h/mL, the highest level (Cmax) was 447 ng/mL and the Vd is 9.8 L/kg. In data set [4] (setting [7]), this molecule gave a clearance of 19.4 mL/min/kg and a half-life of 6.5 h. In data set [4] (setting [8]), this molecule showed a Cmax of 643 ng/mL and a half-life of 8.3 h. The F in data set [4] (i.g. 50 mg/kg) came out at 21.8%.

Turning to `O=c1[nH]cc(F)c(=O)[nH]1` [Compound 5-FU, 5-FU, reference compound], in data set [5], the “Inhibition of tumor growth (T/C)” value came out at 47.2% and the “Tumor volume (±S)” value was 799.62 ± 61.95 mm^3.

Regarding `CCN1CCN(Cc2ccc(Nc3ncc(F)c(-c4sc(NC5CCCC5)nc4C)n3)nc2)CC1.CS(=O)(=O)O` [Compound A mesylate], the “S: Solubility” value in data set [1] (FaSSIF, 1 hour) stood at 8800 µg/mL; in data set [1] (FaSSIF, 2 hours), 8300 µg/mL; in data set [1] (FaSSIF, 4 hours), 8400 µg/mL; in data set [1] (FaSSIF, 24 hours), 4400 µg/mL; in data set [1] (H2O, 1 hour), 8200 µg/mL; in data set [1] (H2O, 2 hours), 8300 µg/mL. For the same molecule, the “S: Solubility” value in data set [1] (H2O, 4 hours) was 8600 µg/mL; in data set [1] (H2O, 24 hours) it was 8500 µg/mL. Further, the “solubility compared to Compound A free base” value in data set [1] is “significantly increased”. Moreover, the Purity in data set [2] (25° C./60% RH) is 97.6 area %; in data set [2] (40° C./75% RH) it was 97.5 area %. Further, the Relative purity in data set [2] (25° C./60% RH) is listed as 100.1 % of initial; in data set [2] (40° C./75% RH), 100.0 % of initial. Further, the “Moisture absorbed at 25° C./80% RH” value in data set [3] turned out to be 14.4%. In addition, the Hygroscopicity result in data set [3] is recorded as “Extremely hygroscopic”.

As to `CC(=O)c1c(C)c2cnc(Nc3ccc(N4CCNCC4)cn3)nc2n(C2CCCC2)c1=O` [Palbociclib, reference compound], the “Tumor volume (±S)” value in data set [6] (14 days) stood at 1850.1 ± 121.1 mm^3. Further, the “Mean tumor growth inhibition (T/C)” value in data set [6] (day 14) is 42.8% and 42.79%.

(Values after patent publication US20230399325A1, “SUCCINATE AND CRYSTAL FORM THEREOF AS THERAPEUTICS” (AUCENTRA THERAPEUTICS PTY LTD, priority 2020, published 2023).)
